Results taken from US20140120083A1, “TREATMENT OF CANCERS USING PI3 KINASE ISOFORM MODULATORS” (INFINITY PHARMACEUTICALS, INC., priority 2012, published 2014).

Columns and labels:
Format in all cases: biochemical
PI3K γ = target: T1, PI3K γ (Homo sapiens, UniProt P48736); experiment: In vitro IC50, PI3K γ
T1 construct: purchased Sigma
Text: (§1) An exemplary system is PI 3-Kinase (human) HTRF™ Assay from Upstate.

PI3K α = target: T2, PI3K α (Homo sapiens, UniProt P42336); experiment: In vitro IC50, PI3K α
T2 construct: purchased Upstate
Text: as §1

PI3K β = PI3K β (Homo sapiens, UniProt P42338); experiment: In vitro IC50, PI3K β
Text: as §1

PI3K δ = PI3K δ (Homo sapiens, UniProt O00329); experiment: In vitro IC50, PI3K δ; parameters: purchased Upstate
Text: as §1

T2 sequence (P42336 whole entry): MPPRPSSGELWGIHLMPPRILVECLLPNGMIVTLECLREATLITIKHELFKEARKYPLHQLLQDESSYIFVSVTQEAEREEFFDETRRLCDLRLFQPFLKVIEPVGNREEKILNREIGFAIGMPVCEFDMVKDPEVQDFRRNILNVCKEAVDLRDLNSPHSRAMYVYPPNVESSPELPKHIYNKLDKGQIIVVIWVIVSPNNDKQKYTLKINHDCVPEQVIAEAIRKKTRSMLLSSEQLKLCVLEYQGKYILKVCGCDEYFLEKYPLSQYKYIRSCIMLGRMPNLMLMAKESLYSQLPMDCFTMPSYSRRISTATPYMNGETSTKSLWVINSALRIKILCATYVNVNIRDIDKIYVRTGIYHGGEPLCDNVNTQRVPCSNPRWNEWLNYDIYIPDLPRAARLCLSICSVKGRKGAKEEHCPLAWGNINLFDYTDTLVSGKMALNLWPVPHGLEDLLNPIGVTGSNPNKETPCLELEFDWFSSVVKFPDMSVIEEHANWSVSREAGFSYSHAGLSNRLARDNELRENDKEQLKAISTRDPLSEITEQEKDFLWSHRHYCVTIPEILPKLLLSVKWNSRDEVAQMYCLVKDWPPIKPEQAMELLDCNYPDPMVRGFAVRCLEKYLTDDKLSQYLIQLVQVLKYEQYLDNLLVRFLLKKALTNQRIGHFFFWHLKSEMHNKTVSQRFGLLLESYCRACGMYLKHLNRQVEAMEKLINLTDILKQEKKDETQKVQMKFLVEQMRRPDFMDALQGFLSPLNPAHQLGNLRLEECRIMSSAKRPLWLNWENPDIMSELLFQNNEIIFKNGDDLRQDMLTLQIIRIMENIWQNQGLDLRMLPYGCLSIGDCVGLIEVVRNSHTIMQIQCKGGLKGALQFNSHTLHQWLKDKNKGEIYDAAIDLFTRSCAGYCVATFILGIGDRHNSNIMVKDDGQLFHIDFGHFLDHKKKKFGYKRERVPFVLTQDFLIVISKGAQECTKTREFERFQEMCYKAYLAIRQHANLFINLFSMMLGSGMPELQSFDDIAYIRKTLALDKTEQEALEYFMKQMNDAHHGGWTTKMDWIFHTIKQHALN
T2 sequence (P27986 whole entry partner): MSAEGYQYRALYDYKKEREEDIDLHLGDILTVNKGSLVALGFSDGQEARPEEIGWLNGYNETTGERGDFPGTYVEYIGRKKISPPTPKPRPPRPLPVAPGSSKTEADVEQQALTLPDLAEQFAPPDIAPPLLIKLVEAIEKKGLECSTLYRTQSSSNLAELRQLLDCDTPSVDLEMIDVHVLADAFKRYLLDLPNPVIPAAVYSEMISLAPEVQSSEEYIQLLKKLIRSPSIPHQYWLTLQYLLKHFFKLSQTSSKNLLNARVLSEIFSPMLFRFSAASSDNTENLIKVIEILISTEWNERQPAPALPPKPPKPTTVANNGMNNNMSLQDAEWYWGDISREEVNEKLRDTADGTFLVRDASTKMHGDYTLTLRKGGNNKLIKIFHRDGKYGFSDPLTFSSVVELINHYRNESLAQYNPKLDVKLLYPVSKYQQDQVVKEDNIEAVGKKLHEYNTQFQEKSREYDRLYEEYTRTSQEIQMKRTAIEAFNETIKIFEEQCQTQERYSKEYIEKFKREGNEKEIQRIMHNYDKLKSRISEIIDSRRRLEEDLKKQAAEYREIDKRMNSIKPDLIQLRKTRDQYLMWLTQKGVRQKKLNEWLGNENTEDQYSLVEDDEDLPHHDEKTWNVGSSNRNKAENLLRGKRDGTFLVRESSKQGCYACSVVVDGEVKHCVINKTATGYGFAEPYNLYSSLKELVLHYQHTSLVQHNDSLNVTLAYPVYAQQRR
T1 sequence (P48736 whole entry): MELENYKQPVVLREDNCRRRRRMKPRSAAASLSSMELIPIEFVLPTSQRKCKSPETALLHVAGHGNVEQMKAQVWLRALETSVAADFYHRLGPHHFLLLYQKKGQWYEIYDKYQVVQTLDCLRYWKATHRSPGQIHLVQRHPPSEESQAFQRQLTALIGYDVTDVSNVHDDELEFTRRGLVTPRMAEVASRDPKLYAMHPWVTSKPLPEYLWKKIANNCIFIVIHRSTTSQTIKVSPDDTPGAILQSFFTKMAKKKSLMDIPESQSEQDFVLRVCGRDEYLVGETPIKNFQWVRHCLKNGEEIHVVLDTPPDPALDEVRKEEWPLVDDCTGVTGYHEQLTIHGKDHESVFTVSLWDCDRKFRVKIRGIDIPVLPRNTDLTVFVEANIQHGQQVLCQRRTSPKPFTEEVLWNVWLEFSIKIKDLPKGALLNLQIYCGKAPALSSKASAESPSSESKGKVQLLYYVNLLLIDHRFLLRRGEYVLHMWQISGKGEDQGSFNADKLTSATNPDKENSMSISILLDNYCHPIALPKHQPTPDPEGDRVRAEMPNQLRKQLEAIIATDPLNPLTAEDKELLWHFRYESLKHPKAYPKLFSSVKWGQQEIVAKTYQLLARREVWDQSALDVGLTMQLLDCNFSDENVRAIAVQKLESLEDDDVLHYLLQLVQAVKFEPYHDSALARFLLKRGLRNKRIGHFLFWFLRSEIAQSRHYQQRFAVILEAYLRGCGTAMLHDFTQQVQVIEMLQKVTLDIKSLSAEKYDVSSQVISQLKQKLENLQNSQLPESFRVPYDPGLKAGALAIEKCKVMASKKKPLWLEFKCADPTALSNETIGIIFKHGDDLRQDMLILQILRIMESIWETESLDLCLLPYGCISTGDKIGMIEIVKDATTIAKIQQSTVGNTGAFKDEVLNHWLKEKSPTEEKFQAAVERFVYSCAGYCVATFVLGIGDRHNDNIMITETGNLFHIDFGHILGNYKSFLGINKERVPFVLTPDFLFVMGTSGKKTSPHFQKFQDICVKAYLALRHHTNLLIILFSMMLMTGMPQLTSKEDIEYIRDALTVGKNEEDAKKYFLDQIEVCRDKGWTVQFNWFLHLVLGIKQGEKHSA
PI3K β, sequence (P42338 whole entry): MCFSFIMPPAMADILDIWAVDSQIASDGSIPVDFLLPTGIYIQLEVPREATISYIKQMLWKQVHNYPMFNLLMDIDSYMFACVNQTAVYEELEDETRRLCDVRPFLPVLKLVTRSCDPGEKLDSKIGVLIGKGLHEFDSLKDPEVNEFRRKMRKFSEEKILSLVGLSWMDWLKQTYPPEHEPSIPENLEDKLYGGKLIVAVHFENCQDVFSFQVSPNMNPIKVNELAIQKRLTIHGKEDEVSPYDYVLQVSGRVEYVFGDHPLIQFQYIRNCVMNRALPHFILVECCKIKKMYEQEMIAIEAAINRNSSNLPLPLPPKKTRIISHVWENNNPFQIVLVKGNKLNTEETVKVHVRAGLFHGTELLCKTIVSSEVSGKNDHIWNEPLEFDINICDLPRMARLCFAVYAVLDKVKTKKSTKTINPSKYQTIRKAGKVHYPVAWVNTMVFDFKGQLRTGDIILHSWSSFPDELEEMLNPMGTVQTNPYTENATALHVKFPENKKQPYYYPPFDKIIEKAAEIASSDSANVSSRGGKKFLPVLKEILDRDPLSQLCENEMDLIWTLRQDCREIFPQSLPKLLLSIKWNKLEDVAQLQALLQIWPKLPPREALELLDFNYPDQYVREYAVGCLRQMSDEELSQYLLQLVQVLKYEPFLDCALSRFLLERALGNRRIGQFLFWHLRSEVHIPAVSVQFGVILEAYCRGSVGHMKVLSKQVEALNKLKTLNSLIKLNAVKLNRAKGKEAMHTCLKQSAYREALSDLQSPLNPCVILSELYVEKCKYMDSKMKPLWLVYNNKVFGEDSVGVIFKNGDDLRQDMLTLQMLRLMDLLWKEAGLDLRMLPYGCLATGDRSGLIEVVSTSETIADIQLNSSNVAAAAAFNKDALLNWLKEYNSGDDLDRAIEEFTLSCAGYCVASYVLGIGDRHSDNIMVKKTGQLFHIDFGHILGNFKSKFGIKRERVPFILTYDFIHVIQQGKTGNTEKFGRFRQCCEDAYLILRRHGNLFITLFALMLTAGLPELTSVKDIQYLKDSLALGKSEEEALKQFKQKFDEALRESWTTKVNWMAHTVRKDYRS
PI3K δ, sequence (O00329 whole entry): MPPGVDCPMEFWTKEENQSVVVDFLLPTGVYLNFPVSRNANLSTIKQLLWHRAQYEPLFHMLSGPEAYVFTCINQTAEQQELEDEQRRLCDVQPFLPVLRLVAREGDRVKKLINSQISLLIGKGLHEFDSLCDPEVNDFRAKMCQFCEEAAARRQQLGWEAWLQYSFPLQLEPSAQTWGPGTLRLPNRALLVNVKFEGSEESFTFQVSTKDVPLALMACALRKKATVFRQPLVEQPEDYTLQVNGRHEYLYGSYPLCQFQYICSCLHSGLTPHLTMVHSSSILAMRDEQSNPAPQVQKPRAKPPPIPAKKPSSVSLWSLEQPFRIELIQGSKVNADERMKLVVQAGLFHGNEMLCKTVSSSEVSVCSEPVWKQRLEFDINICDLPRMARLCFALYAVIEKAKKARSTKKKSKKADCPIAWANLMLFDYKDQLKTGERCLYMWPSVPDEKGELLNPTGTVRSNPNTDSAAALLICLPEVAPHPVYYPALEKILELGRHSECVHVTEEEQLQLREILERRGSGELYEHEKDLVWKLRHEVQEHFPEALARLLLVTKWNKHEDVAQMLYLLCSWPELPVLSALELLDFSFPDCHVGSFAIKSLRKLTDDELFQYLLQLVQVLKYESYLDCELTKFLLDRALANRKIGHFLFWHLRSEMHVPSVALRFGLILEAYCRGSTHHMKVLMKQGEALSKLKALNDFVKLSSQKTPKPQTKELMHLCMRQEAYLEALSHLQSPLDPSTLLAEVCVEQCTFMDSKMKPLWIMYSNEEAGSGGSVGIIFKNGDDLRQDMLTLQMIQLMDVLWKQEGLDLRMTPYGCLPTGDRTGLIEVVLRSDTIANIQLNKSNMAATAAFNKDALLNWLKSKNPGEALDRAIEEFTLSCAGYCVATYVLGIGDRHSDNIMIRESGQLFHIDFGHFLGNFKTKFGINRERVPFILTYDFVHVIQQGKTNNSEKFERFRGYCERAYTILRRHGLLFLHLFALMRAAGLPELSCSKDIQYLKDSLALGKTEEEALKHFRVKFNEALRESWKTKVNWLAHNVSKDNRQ
PI3K δ, sequence (P27986 whole entry partner): as the sequence (P27986 whole entry partner) above

| Compound | IC50 (PI3K γ) | IC50 (PI3K α) | IC50 (PI3K β) | IC50 (PI3K δ) |
| --- | --- | --- | --- | --- |
| CCN(Cc1cc2cccc(C)c2c(=O)n1-c1ccccc1C)c1ncnc2[nH]cnc12 [Compound 186] | < 10 µM | > 10 µM | > 10 µM | < 10 µM |
| Cc1cccc2cc(Cn3nc(-c4cn[nH]c4)c4c(N)ncnc43)n(-c3ccccc3Cl)c(=O)c12 [Compound 188] | < 1 µM | > 10 µM | > 10 µM | < 0.1 µM |
| Nc1ncnc2c1c(-c1cn[nH]c1)nn2Cc1cc2cccc(F)c2c(=O)n1-c1ccccc1F [Compound 189] | < 10 µM | > 10 µM | > 10 µM | < 1 µM |
| CCc1ccccc1-n1c(Cn2nc(-c3cn[nH]c3)c3c(N)ncnc32)cc2cccc(C)c2c1=O [Compound 190] | < 0.1 µM | < 10 µM | < 10 µM | < 0.1 µM |
| Cc1ccccc1-n1c(C(C)Nc2ncnc3[nH]cnc23)cc2cccc(C)c2c1=O (centres unmarked) [Compound 191] | < 0.1 µM | > 10 µM | < 10 µM | < 0.1 µM |
| Cc1ccccc1-n1c(Cn2nc(/C=C/C(=O)N3CCOCC3)c3c(N)ncnc32)cc2cccc(C)c2c1=O [Compound 192] | > 10 µM | > 10 µM | > 10 µM | < 1 µM |
| Cc1ccccc1-n1c(Cn2nc(CCC(=O)N3CCOCC3)c3c(N)ncnc32)cc2cccc(C)c2c1=O [Compound 193] | > 10 µM | > 10 µM | > 10 µM | < 10 µM |
| Cc1ccccc1-n1c(Cn2nc(CN3CCOCC3)c3c(N)ncnc32)cc2cccc(C)c2c1=O [Compound 194] | > 10 µM | > 10 µM | > 10 µM | < 10 µM |
| Cc1cccc2cc([C@@H](C)Nc3ncnc4[nH]cnc34)n(C3CCC3)c(=O)c12 [Compound 197] | < 10 µM | > 10 µM | > 10 µM | > 10 µM |
| Cc1cccc2cc([C@H](C)Nc3ncnc4[nH]cnc34)n(C3CCC3)c(=O)c12 [Compound 198] | < 0.1 µM | < 10 µM | < 10 µM | < 0.1 µM |
| Cc1cccc2cc(Cn3nc(-c4ccc5oc(N)nc5c4)c4c(N)ncnc43)n(C3CC3)c(=O)c12 [Compound 201] | < 0.1 µM | < 0.1 µM | < 1 µM | < 0.1 µM |
| CCC(Nc1ncnc2[nH]cnc12)c1cc2cccc(C)c2c(=O)n1-c1ccccc1C (centres unmarked) [Compound 202] | < 1 µM | > 10 µM | < 10 µM | < 0.1 µM |
| Cc1cccc2cc(C(C)Nc3ncnc4[nH]cnc34)n(C3CC3)c(=O)c12 (centres unmarked) [Compound 204] | < 0.1 µM | < 10 µM | < 1 µM | < 0.1 µM |
| Cc1cccc2cc(Cn3nc(-c4ccc5oc(N)nc5c4)c4c(N)ncnc43)n(-c3ccccc3)c(=O)c12 [Compound 205] | < 0.1 µM | < 10 µM | < 10 µM | < 0.1 µM |
| Cc1cccc2cc(Cn3nc(-c4cn[nH]c4)c4c(N)ncnc43)n(-c3ccccc3)c(=O)c12 [Compound 206] | < 1 µM | < 10 µM | < 10 µM | < 0.1 µM |
| Cc1ccccc1-n1c(Cn2nc(-c3nn[nH]n3)c3c(N)ncnc32)cc2cccc(C)c2c1=O [Compound 207] | < 0.1 µM | < 10 µM | < 10 µM | < 0.1 µM |
| Cc1cccc2cc(Cn3nc(-c4ccc5oc(N)nc5c4)c4c(N)ncnc43)n(C3CCC3)c(=O)c12 [Compound 208] | < 0.1 µM | < 1 µM | < 1 µM | < 0.1 µM |
| Cc1cccc2cc(C(C)Nc3ncnc4[nH]cnc34)n(C(C)C)c(=O)c12 (centres unmarked) [Compound 209] | < 1 µM | < 10 µM | < 10 µM | < 0.1 µM |
| Cc1cccc2cc(C(C)Nc3ncnc4[nH]cnc34)n(-c3ccccc3)c(=O)c12 (centres unmarked) [Compound 210] | < 0.1 µM | < 10 µM | < 10 µM | < 0.1 µM |
| CCC(Nc1ncnc2[nH]cnc12)c1cc2cccc(C)c2c(=O)n1-c1ccccc1 (centres unmarked) [Compound 211] | < 0.1 µM | > 10 µM | < 10 µM | < 0.1 µM |
| CCC(Nc1ncnc2[nH]cnc12)c1cc2cccc(C)c2c(=O)n1C1CCC1 (centres unmarked) [Compound 212] | < 1 µM | > 10 µM | < 10 µM | < 0.1 µM |
| Cc1cccc2cc(C(C)Nc3ncnc4[nH]cnc34)n(-c3ccc(F)cc3)c(=O)c12 (centres unmarked) [Compound 213] | < 0.1 µM | < 10 µM | < 1 µM | < 0.1 µM |
| Cc1cccc2cc(Cn3nc(-c4cn[nH]c4)c4c(N)ncnc43)n(-c3ccccc3C(F)(F)F)c(=O)c12 [Compound 214] | < 1 µM | > 10 µM | < 10 µM | < 0.1 µM |
| Cc1cccc2cc(C(C)Nc3ncnc4[nH]cnc34)n(C3CCC3)c(=O)c12 (centres unmarked) [Compound 215] | < 0.1 µM | > 10 µM | < 10 µM | < 0.1 µM |

| Compound | IC50 (PI3K γ) | IC50 (PI3K α) | IC50 (PI3K β) | IC50 (PI3K δ) |
| --- | --- | --- | --- | --- |
| Cc1cccc2cc(C(C)Nc3ncnc4[nH]cnc34)n(-c3c(F)cccc3F)c(=O)c12 (centres unmarked) [Compound 216] | < 1 µM | > 10 µM | > 10 µM | < 0.1 µM |
| Cc1cccc(C)c1-n1c(CNc2ncnc3[nH]cnc23)cc2cccc(C)c2c1=O [Compound 218] | < 1 µM | > 10 µM | > 10 µM | < 0.1 µM |
| CCC(Nc1ncnc2[nH]cnc12)c1cc2cccc(C)c2c(=O)n1C(C)C (centres unmarked) [Compound 219] | < 10 µM | > 10 µM | < 10 µM | < 0.1 µM |
| CC(Nc1ncnc2[nH]cnc12)c1cc2ccccc2c(=O)n1-c1ccccc1 (centres unmarked) [Compound 220] | < 1 µM | > 10 µM | < 10 µM | < 0.1 µM |
| CCC(Nc1ncnc2[nH]cnc12)c1cc2ccccc2c(=O)n1-c1ccccc1 (centres unmarked) [Compound 221] | < 10 µM | > 10 µM | > 10 µM | < 0.1 µM |
| Cc1cccc2cc(C(C)Nc3ncnc4[nH]cnc34)n(-c3cc(F)cc(F)c3)c(=O)c12 (centres unmarked) [Compound 222] | < 1 µM | > 10 µM | > 10 µM | < 0.1 µM |
| CCC(Nc1ncnc2[nH]cnc12)c1cc2cccc(C)c2c(=O)n1-c1ccc(F)cc1 (centres unmarked) [Compound 223] | < 0.1 µM | < 10 µM | < 10 µM | < 0.1 µM |
| CCC(Nc1ncnc2[nH]cnc12)c1cc2cccc(C)c2c(=O)n1-c1cc(F)cc(F)c1 (centres unmarked) [Compound 224] | < 10 µM | > 10 µM | > 10 µM | < 0.1 µM |
| Cc1cccc2cc(C(C)Nc3ncnc4[nH]cnc34)n(C3CCN(C)CC3)c(=O)c12 (centres unmarked) [Compound 227] | > 10 µM | > 10 µM | < 1 µM | < 0.1 µM |
| CCC(Nc1ncnc2[nH]cnc12)c1cc2cccc(C)c2c(=O)n1C1CCN(C)CC1 (centres unmarked) [Compound 228] | > 10 µM | > 10 µM | < 10 µM | < 1 µM |
| Cc1cccc2cc([C@H](C)Nc3ncnc4ccccc34)n(-c3ccccc3)c(=O)c12 [Compound 238] | < 1 µM | > 10 µM | > 10 µM | < 0.1 µM |
| Cc1cccnc1-n1c(Cn2nc(-c3ccc4oc(N)nc4c3)c3c(N)ncnc32)cc2cccc(C)c2c1=O [Compound 240] | < 0.1 µM | < 10 µM | < 10 µM | < 0.1 µM |
| Cc1ccccc1-n1c(Cn2nc(-c3ccc4nc(N)oc4c3)c3c(N)ncnc32)cc2cccc(C)c2c1=O [Compound 243] | < 0.1 µM | < 10 µM | < 10 µM | < 0.1 µM |
| Cc1cccc2cc([C@H](C)Nc3nc(Cl)nc4[nH]cnc34)n(-c3ccccc3)c(=O)c12 [Compound 244] | < 0.1 µM | < 10 µM | < 10 µM | < 0.1 µM |
| Cc1cccc2cc([C@H](C)Nc3ncnc4[nH]ccc34)n(-c3ccccc3)c(=O)c12 [Compound 247] | < 0.1 µM | > 10 µM | < 10 µM | < 0.1 µM |
| Cc1cccc2cc([C@H](C)Nc3nc(Cl)ncc3Cl)n(-c3ccccc3)c(=O)c12 [Compound 248] | < 10 µM | > 10 µM | > 10 µM | < 1 µM |
| Cc1cccc2cc([C@H](C)Nc3nc(N)ncc3Cl)n(-c3ccccc3)c(=O)c12 [Compound 249] | < 0.1 µM | > 10 µM | < 10 µM | < 0.1 µM |
| CC(=O)Nc1nc2cc(-c3nn(Cc4cc5cccc(C)c5c(=O)n4-c4ccccc4C)c4ncnc(N)c34)ccc2o1 [Compound 251] | < 0.1 µM | < 10 µM | < 1 µM | < 0.1 µM |
| Cc1cccc2cc(Cn3nc(-c4ccc5nc(N)sc5c4)c4c(N)ncnc43)n(-c3ccccc3)c(=O)c12 [Compound 252] | < 0.1 µM | < 0.1 µM | < 1 µM | < 0.1 µM |
| CC(=O)Nc1nc2cc(-c3nn(Cc4cc5cccc(C)c5c(=O)n4-c4ccccc4)c4ncnc(N)c34)ccc2o1 [Compound 253] | < 0.1 µM | < 10 µM | < 0.1 µM | < 0.1 µM |
| Cc1cccc2cc([C@H](C)Nc3ncnc4[nH]cc(F)c34)n(-c3ccccc3)c(=O)c12 [Compound 254] | < 0.1 µM | < 10 µM | < 0.1 µM | < 0.1 µM |
| Cc1cccc2cc([C@H](C)Nc3ncnc4[nH]nc(C#N)c34)n(-c3ccccc3)c(=O)c12 [Compound 255] | < 0.1 µM | < 10 µM | < 0.1 µM | < 0.1 µM |
| Cc1cccc2cc([C@H](C)Nc3ncnc4[nH]nc(C(N)=O)c34)n(-c3ccccc3)c(=O)c12 [Compound 256] | < 0.1 µM | < 10 µM | < 0.1 µM | < 0.1 µM |
